Results taken from article PMC7581941, “Schedule-Dependent Synergy Between the Histone Deacetylase Inhibitor Belinostat and the Dihydrofolate Reductase Inhibitor Pralatrexate in T-and B-cell Lymphoma Cells in vitro” (Frontiers in Cell and Developmental Biology, 2020).
Where two headings read alike, the source gives them in different places.

Key:
CCRF-CEM = assay: Cell growth inhibition (MTT), CCRF-CEM; assay type: cell-based, human; conditions: Homo sapiens, read-out: IC50 (50% growth inhibition); CCRF-CEM, 72 h exposure
Method: (§1) Cells were treated immediately with a drug dilution series in cell culture medium (75 μL/well). After an incubation period of approximately 72 h, growth in the 96-wells plates was assessed by adding 15 μL MTT solution (stock solution 5 mg/ml in PBS, final concentration 0.5 mg/ml in culture medium) to each well. After incubation for 3 h in the 5% CO2 incubator with 100% humidity at 37°C, 150 μL acidified 2-propanol was added to the plates to dissolve the formazan crystals. The yellow-colored MTT stock solution is taken up and reduced to a purple formazan in living cells, which directly correlates to the amount of viable cells. As final step, the plates were measured at 540 (or 492) nm by the SPECTRAfluor spectrophotometer.

HT cells [1] = assay: Cell growth inhibition (cell counting) and median-drug effect analysis, HT; assay type: cell-based; conditions: for IC50: HT
SUDHL-4 cells [2] = assay: Cell growth inhibition (cell counting) and median-drug effect analysis, SUDHL-4; assay type: cell-based; conditions: Homo sapiens, SU-DHL-4, read-out: IC50 (50% growth inhibition); SUDHL 4, 72 h exposure
SUDHL-5 cells = assay: Cell growth inhibition (MTT) and median-drug effect analysis, SUDHL-5; assay type: cell-based; conditions: Homo sapiens, SU-DHL-5, read-out: IC50 (50% growth inhibition); SUDHL 5, 72 h exposure
Method: as §1
Drug interaction in combination experiments was evaluated using the median-drug effect analysis using CalcuSyn software ([Bijnsdorp et al., 2011]). In order to evaluate combination indexes [CI] from different experiments, the CI values at Fraction Affected (FA) values >0.5 (preferably around 0.5, 0.75, and 0.9) were averaged for each specific experiment. The means of the separate experiments were subsequently averaged so that a mean ± Standard Error of the Mean (SEM) was calculated from three or more separate experiments. […] Drug combinations were designed based on the standard CalcuSyn approach in which a series of drug concentrations were combined in a fixed molar ratio, based on the IC50 of each drug. A variation of this approach was a sequential scheduling in which cells were exposed for 72 h to BLS, while in the combination PLX was added after 24 h and cells were exposed from 24 to 72 h. In the non-fixed ratio approach one drug was used at the IC25 (concentration that results in 25% growth inhibition) and the other drug was added in a concentration range.

Jeko-1 = assay: Cell growth inhibition (MTT) and median-drug effect analysis, Jeko-1; assay type: cell-based; conditions: Homo sapiens, read-out: IC50 (50% growth inhibition); Jeko-1, 72 h exposure
Method: Cells were plated in 96-wells flat bottom plates, at 3,000 or 6,000 cells per well in culture medium (75 μL/well) or in 24-wells plates (60,000 cells/well) for the counting assays for which a Coulter Counter was used. Cells were treated immediately with a drug dilution series in cell culture medium (75 μL/well). […] After incubation for 3 h in the 5% CO2 incubator with 100% humidity at 37°C, 150 μL acidified 2-propanol was added to the plates to dissolve the formazan crystals. The yellow-colored MTT stock solution is taken up and reduced to a purple formazan in living cells, which directly correlates to the amount of viable cells. As final step, the plates were measured at 540 (or 492) nm by the SPECTRAfluor spectrophotometer. […] Drug interaction in combination experiments was evaluated using the median-drug effect analysis using CalcuSyn software ([Bijnsdorp et al., 2011]). […] The means of the separate experiments were subsequently averaged so that a mean ± Standard Error of the Mean (SEM) was calculated from three or more separate experiments. […] Drug combinations were designed based on the standard CalcuSyn approach in which a series of drug concentrations were combined in a fixed molar ratio, based on the IC50 of each drug. […]

Karpas-299 = assay: Cell growth inhibition (MTT) and median-drug effect analysis, Karpas-299; assay type: cell-based; conditions: Homo sapiens, read-out: IC50 (50% growth inhibition); Karpas-299, 72 h exposure
Method: as §1
(§2) Drug interaction in combination experiments was evaluated using the median-drug effect analysis using CalcuSyn software ([Bijnsdorp et al., 2011]). In order to evaluate combination indexes [CI] from different experiments, the CI values at Fraction Affected (FA) values >0.5 (preferably around 0.5, 0.75, and 0.9) were averaged for each specific experiment. The means of the separate experiments were subsequently averaged so that a mean ± Standard Error of the Mean (SEM) was calculated from three or more separate experiments. […]

Hut-29 = assay: Cell growth inhibition (MTT) and median-drug effect analysis, Hut-29; assay type: cell-based; conditions: read-out: IC50 (50% growth inhibition); Hut-29, 72 h exposure
Method: as §1, §2

lymphoma cell lines = assay: Cell growth inhibition and median-drug effect analysis, panel of lymphoma cell lines; assay type: cell-based
Method: Cells were plated in 96-wells flat bottom plates, at 3,000 or 6,000 cells per well in culture medium (75 μL/well) or in 24-wells plates (60,000 cells/well) for the counting assays for which a Coulter Counter was used. Cells were treated immediately with a drug dilution series in cell culture medium (75 μL/well). […] After incubation for 3 h in the 5% CO2 incubator with 100% humidity at 37°C, 150 μL acidified 2-propanol was added to the plates to dissolve the formazan crystals. The yellow-colored MTT stock solution is taken up and reduced to a purple formazan in living cells, which directly correlates to the amount of viable cells. As final step, the plates were measured at 540 (or 492) nm by the SPECTRAfluor spectrophotometer. […] Drug interaction in combination experiments was evaluated using the median-drug effect analysis using CalcuSyn software ([Bijnsdorp et al., 2011]). […] The means of the separate experiments were subsequently averaged so that a mean ± Standard Error of the Mean (SEM) was calculated from three or more separate experiments. […] Drug combinations were designed based on the standard CalcuSyn approach in which a series of drug concentrations were combined in a fixed molar ratio, based on the IC50 of each drug. A variation of this approach was a sequential scheduling in which cells were exposed for 72 h to BLS, while in the combination PLX was added after 24 h and cells were exposed from 24 to 72 h.

HT cells [3] = assay: FACS propidium iodide staining: cell cycle distribution and cell death, HT; assay type: cell-based
Method: (§3) Propidium iodide staining (DNA staining) was used to determine cell cycle distribution and the extent of cell death. Cells (120,000 per well in a 24-wells plate) were exposed to PLX or BLS or the combination for 24, 48, or 72 h. Cells were harvested, suspended in 1.0 ml phosphate buffered saline/1% Bovine serum albumin and fixed with 70% ethanol. After centrifugation the pellet was resuspended in hypotonic propidium iodide (0.1 mg/ml), Triton-X-100 (0.1%), sodium citrate (1 mg/ml) and RNAse A (0.5 mg/ml) (final concentrations in saline) and stored in dark on ice for 30 min ([De Wilt et al., 2012]). DNA content of the cells to determine cell cycle effects and cell kill was analyzed by a FACScalibur (Becton Dickinson Immunocytometry Systems, San Jose, CA, United States) with an acquisition of 10,000 events as described previously ([De Wilt et al., 2012]).

SUDHL-4 cells [4] = assay: FACS propidium iodide staining: cell death, SUDHL-4; assay type: cell-based; conditions: drugs at their IC50, untreated 5.0%
Method: as §3

FRα = target: T1, FRα (Homo sapiens, UniProt P15328); assay: Intact cell binding assay, displacement of radio-active folic acid from KB cells; conditions: inverse ratio of compound to displace 50% of radio-active folic acid, folic acid set at 1
T1 construct: endogenous in cells; host or cells: KB cells
T1 sequence (P15328 25-257): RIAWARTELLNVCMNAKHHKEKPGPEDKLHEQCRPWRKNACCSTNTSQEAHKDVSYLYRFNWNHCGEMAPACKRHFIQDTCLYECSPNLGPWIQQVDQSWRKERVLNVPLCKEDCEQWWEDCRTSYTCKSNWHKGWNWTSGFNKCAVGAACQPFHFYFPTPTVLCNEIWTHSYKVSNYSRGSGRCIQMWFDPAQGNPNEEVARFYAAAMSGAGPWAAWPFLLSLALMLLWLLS
Method: (§4) In order to determine to which extent PLX was a substrate for either the folate receptors, RFC or PCFT we used competition experiments in cell lines overexpressing either transporter ([Westerhof et al., 1995a], [b]; [Jansen et al., 1997]; [Ifergan et al., 2008]; [Lasry et al., 2008]; [van der Heijden et al., 2009]). For FRα and FRβ, we used an intact cell binding assay for competitive binding with KB cells and CHO-FRβ cells, respectively. […] For RFC we used a competition assay with 5 μM [^3H]-l-LV in CCRF-CEM/7A cells (RFC+++) for 2 min at 37°C. CEM-7A cells overexpress the RFC 30-fold over wild-type CCRF-CEM cells ([Jansen et al., 1990], [1997]).

FRβ = target: T2, FRβ (Homo sapiens, UniProt P14207); assay: Intact cell binding assay, displacement of radio-active folic acid from CHO-FRβ cells; conditions: folic acid set at 1
T2 construct: expressed in transfected cells; host or cells: CHO-FRβ cells
T2 sequence (P14207 17-255, species assumed): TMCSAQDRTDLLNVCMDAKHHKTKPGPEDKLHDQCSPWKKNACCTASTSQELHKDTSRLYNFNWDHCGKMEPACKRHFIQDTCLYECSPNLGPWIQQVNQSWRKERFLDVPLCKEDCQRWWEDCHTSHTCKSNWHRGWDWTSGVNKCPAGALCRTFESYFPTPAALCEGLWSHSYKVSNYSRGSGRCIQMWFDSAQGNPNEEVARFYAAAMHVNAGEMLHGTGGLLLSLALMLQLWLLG
Method: as §4

SMILES | IC50 (CCRF-CEM) [nM] | IC25 (concentration that results in 25% growth inhibition) (HT cells [1]; HT cells, 72 h) [nM] | IC50 (HT cells [1]; Homo sapiens, 72 h, read-out: IC50 (50% growth inhibition), HT, 72 h exposure) [nM] | IC50 (HT cells [1]; read-out: IC50 (50% growth inhibition), 72 h exposure) [nM] | IC50 (SUDHL-4 cells [2]) [nM] | IC50 (SUDHL-5 cells) [nM] | IC50 (Jeko-1) [nM] | IC50 (Karpas-299) [nM] | IC50 (Hut-29) [nM] | IC50 (lymphoma cell lines; 72 hr exposure, panel of cell lines, read-out: IC50, range over the cell lines) [nM] | effect of l-LV on sensitivity to BLS (lymphoma cell lines; data not shown) | accumulation of cells in the S-phase (HT cells [3]; 72 h exposure at IC50) | accumulation of cells in the sub-G1 phase (cell death) (HT cells [3]; drugs at their IC50, untreated 3.5%) [%] | accumulation of cells in the sub-G1 phase (cell death) (SUDHL-4 cells [4]) [%] | FR-α relative affinity (FRα) | FRβ relative affinity (FRβ)
O=C(/C=C/c1cccc(S(=O)(=O)Nc2ccccc2)c1)NO [BLS, Belinostat] | 95.8 ± 16.1 | ~100 | ~220 | 223 ± 23 | 72.3 ± 5 | 112 ± 15 | 103 ± 11 | 203 ± 21 | 97 ± 12 | 72 to 233 | did not affect sensitivity | more pronounced | 21 | 15.5 | – | –
Nc1nc(=O)c2nc(CNc3ccc(C(=O)N[C@@H](CCC(=O)O)C(=O)O)cc3)cnc2[nH]1 [FA, Folic acid] | – | – | – | – | – | – | – | – | – | – | – | – | – | – | 1 | 1
